The experiment relates to H3N2 A/Hong Kong/1/1968 virus. It counts as cell-based, influenza A virus.

`CC(=O)N[C@H]1[C@H]([C@H](O)[C@H](O)CO)OC(C(=O)O)=C[C@@H]1N=C(N)N` [Zanamivir, zanamivir]: the “inhibition of cell-to-cell spread of the virus” value is “efficient inhibition of cell-to-cell virus spread”.

The values above are taken from US12496336B2 (priority 2019, dated 2025).
